Reference: patent publication US11780821B2, “Inhibitors of fibroblast activation protein” (Praxis Biotech LLC, priority 2017, dated 2023)
Where two headings read alike, the source gives them in different places.

Experiments:
[1] = molecular target: T1, recombinant mouse DPPIV (rmDPPIV) (Mus musculus, UniProt P28843); assay: DPPIV enzymatic activity assay; assay type: biochemical; conditions: H-Gly-Pro-pNA substrate
T1 construct: purchased R&S system (so in the source)

[2] = molecular target: T2, recombinant mouse PREP (rmPREP) (Mus musculus, UniProt Q9QUR6); assay: PREP enzymatic activity assay; assay type: biochemical; conditions: Z-Gly-Pro-AMC substrate
T2 construct: purchased R&S system (so in the source)
T2 sequence (Q9QUR6 whole entry): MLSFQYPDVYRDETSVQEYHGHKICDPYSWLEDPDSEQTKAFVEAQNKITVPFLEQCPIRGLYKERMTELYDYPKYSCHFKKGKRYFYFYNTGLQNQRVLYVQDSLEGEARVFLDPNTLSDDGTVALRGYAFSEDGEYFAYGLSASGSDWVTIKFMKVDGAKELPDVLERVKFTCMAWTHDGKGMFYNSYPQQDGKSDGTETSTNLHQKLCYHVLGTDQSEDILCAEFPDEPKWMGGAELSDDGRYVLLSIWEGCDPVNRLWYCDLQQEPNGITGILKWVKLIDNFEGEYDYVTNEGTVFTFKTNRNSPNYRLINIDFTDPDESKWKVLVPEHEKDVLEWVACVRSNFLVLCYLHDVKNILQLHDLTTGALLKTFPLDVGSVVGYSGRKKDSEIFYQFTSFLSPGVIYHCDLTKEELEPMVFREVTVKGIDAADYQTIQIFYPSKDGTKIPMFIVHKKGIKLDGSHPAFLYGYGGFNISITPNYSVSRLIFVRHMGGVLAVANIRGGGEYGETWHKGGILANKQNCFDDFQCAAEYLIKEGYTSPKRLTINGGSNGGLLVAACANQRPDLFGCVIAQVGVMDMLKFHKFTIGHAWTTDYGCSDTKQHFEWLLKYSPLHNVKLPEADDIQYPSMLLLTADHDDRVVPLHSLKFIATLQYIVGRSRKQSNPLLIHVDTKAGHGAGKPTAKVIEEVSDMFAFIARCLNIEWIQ
Procedure: 7-Amino-4-Methylcoumarin (AMC) release was detected by measuring fluorescence at Ex/Em 380/460 nm using a Multifunction Microplate Reader (Synergy 4, Biotek). All measurements were carried out in triplicate.

[3] = Intravenous and oral bioavailability in mice; assay type: in vivo; conditions: mouse; for AUC(0-t): oral (PO) 10 mg/kg single dose; for bioavailability: PO 10 mg/kg vs IV 2 mg/kg, read-out: F (bioavailability)
Procedure: The pharmacokinetic properties of exemplary test compounds were assayed after administration of an intravenous (IV) 2 mg/kg or oral (PO) 10 mg/kg single dose in mice. Exemplary test compounds were formulated at 0.4 and 1 mg/ml in a vehicle containing Poly-Ethylene Glycol 200 (PEG200; Cat. No. #P3015, Sigma Aldrich) and distilled water (dH2O) (50/50, v/v) as dosing solutions for intravenous and oral administration, respectively.
C57BL/6j and Balb/c mice, approximately 8-10 weeks old, were obtained from the vivarium Fundación Ciencia & Vida Chile (Santiago, Chile) and maintained in a temperature-controlled room with 12/12 hr light/dark schedule with food and water ad libitum. Animals were acclimated for a minimum period of 4 days upon arrival at the testing facility.
On the day of study, mice were weighed and identified by marking the tail with numbers using a non-toxic permanent marker for designation into the experimental groups (n=3 per group). Each mouse in the IV dosing groups received a systemic bolus of 2 mg/kg dosing solution via the caudal vein.
Non-dosed mice were used to collect samples of zero time points. […] Blood samples were centrifuged immediately at 9,000 g at 4° C. for 5 min and the plasma was separated.
The plasma samples were analyzed by QTRAP 4500 triple quadrupole mass spectrometer (Applied Biosystems SCIEX) in positive or negative ion mode depending on the tested compound and interfaced with an ekspert ultraLC 100-XL UPLC System (eksigent) to determine the concentration of the exemplary test compound. […] The precipitated samples were centrifuged at 6,100 g for 30 min at 4° C. Following centrifugation, an aliquot of each supernatant was transferred into a clean sample vial and diluted with two volumes of aqueous mobile phase (0.2% formic acid in water). Samples were injected onto a reverse phase analytical column (YMC Triart C18; 2.0×50 mm; 1.9 μm; YMC CO) and eluted with a gradient of 0.1 or 0.2% formic acid in Acetonitrile. Test compound and internal standard were monitored by a multiple reaction monitoring (MRM) experiment using Analyst software (v1.6.2, Applied Biosystems SCIEX). Quantitation was conducted using MultiQuant software (v2.1, Applied Biosystems SCIEX) and the resulting calibration curve was fitted with a linear or quadratic regression and 1/x weighting.
IV and PO PK parameters were calculated from the concentration-time data using Phoenix WinNonlin software (v6.4, Certara, Princeton, N.J.) by noncompartmental analysis. Area under the concentration-time curve (AUClast) was estimated using a log-linear trapezoidal method, from the dosing time to the last measurable concentration.

[4] = molecular target: T3, recombinant mouse FAPα (rmFAPα) (Mus musculus, UniProt P97321); assay: FAPα enzymatic exopeptidase (dipeptidase) activity assay; assay type: biochemical; conditions: exopeptidase, read-out: rmFAPα (exo IC50)
T3 construct: purchased R&S system (so in the source)
T3 sequence (P97321 1-761): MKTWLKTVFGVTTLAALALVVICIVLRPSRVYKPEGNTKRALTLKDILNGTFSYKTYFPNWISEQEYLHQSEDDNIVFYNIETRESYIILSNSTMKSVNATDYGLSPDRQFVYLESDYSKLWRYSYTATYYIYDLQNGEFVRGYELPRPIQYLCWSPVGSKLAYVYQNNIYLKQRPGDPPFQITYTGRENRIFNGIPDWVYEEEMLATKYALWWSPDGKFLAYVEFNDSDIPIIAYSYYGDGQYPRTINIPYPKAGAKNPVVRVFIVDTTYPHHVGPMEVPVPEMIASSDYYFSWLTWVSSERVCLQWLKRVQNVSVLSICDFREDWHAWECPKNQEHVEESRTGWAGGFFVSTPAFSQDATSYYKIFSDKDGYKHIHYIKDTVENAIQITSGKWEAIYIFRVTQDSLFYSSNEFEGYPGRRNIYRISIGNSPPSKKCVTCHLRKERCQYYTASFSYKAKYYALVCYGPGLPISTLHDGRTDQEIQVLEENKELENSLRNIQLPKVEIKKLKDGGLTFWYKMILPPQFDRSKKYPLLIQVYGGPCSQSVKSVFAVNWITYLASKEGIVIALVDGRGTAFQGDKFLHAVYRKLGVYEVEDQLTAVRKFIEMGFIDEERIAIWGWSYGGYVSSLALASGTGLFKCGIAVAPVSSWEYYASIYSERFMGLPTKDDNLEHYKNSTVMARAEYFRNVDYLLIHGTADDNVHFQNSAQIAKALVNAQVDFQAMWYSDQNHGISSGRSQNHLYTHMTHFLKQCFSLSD

T1 sequence (P28843 whole entry): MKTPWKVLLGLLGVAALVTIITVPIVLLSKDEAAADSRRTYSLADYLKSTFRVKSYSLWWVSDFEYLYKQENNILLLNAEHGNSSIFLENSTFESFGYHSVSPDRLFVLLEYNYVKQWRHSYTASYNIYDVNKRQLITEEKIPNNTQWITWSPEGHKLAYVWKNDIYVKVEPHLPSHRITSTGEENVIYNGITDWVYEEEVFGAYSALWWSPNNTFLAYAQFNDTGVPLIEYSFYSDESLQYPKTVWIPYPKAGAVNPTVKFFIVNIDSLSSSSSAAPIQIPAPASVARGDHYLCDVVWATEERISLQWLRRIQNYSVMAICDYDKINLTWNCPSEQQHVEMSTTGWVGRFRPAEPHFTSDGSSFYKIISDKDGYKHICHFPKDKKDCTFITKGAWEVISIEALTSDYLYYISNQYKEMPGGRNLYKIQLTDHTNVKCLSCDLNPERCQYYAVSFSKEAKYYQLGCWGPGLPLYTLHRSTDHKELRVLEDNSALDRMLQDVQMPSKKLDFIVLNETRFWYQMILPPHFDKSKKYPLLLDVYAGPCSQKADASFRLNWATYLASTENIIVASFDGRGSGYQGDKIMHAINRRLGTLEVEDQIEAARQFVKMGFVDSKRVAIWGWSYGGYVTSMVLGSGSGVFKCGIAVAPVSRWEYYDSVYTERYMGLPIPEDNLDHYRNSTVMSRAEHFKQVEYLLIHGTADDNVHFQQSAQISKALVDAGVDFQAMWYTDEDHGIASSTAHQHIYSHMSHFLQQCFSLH

Row | Structure (SMILES) | IC50 [1] | IC50 [2] | AUC(0-t) ([3]; plasma) | bioavailability ([3]; plasma) | IC50 ([4]; Table 2, Z-Gly-Pro-AMC) | IC50 ([4]; Table 3) | bioavailability ([3]; in vivo) | AUC(0-t) ([3]; in vivo, plasma)
1 | N#C[C@@H]1CC(F)(F)CN1C(=O)CNC(=O)c1c[nH]c(=O)c(-c2ccccc2)c1 [Compound 14, (S)—N-(2-(2-cyano-4,4-difluoropyrrolidin-1-yl)-2-oxoethyl)-6-oxo-5-phenyl-1,6-dihydropyridine-3-carboxamide] | > 10 µM | > 10 µM |  |  |  |  |  | 
2 | N#C[C@@H]1CC(F)(F)CN1C(=O)CNC(=O)c1ccncc1-c1ccc(F)cc1 [Compound 52, (S)—N-(2-(2-cyano-4,4-difluoropyrrolidin-1-yl)-2-oxoethyl)-3-(4-fluorophenyl)isonicotinamide] |  |  | 721 ng·h/mL | 30.3% | < 1000 nM | < 1000 nM |  | 
3 | N#C[C@@H]1CC(F)(F)CN1C(=O)CNC(=O)c1c[nH]c(=O)cc1-c1ccc(F)cc1 [Compound 109, (S)—N-(2-(2-cyano-4,4-difluoropyrrolidin-1-yl)-2-oxoethyl)-4-(4-fluorophenyl)-6-oxo-1,6-dihydropyridine-3-carboxamide] |  |  | 2140 ng·h/mL | 9% |  |  |  | 
4 | N#C[C@@H]1CC(F)(F)CN1C(=O)CNC(=O)c1ccncc1-c1ccccc1 [Compound 13, (S)—N-(2-(2-cyano-4,4-difluoropyrrolidin-1-yl)-2-oxoethyl)-3-phenylisonicotinamide] | > 10 µM | > 10 µM | 760 ng·h/mL | 27.9% | < 1000 nM | < 1000 nM |  | 
5 | N#C[C@@H]1CC(F)(F)CN1C(=O)CNC(=O)c1ccncc1C1=CCNCC1 [Compound 105, (S)—N-(2-(2-cyano-4,4-difluoropyrrolidin-1-yl)-2-oxoethyl)-1′,2′,3′,6′-tetrahydro-[3,4′-bipyridine]-4-carboxamide 2,2,2-trifluoroacetate] |  |  |  |  |  |  | 3% | 18.3 ng·h/mL
6 | N#C[C@@H]1CC(F)(F)CN1C(=O)CNC(=O)c1ccncc1C1CC1 [Compound 24, (S)—N-(2-(2-cyano-4,4-difluoropyrrolidin-1-yl)-2-oxoethyl)-3-cyclopropylisonicotinamide] |  |  | 910 ng·h/mL | 54% | < 1000 nM | < 1000 nM |  | 
7 | N#C[C@@H]1CC(F)(F)CN1C(=O)CNC(=O)c1ccncc1N1CCOCC1 [Compound 88, N-[2-[(2S)-2-cyano-4,4-difluoro-pyrrolidin-1-yl]-2-oxo-ethyl]-3-morpholino-pyridine-4-carboxamide] |  |  |  |  |  | < 1000 nM |  | 
8 | N#C[C@@H]1CC(F)(F)CN1C(=O)CNC(=O)c1ccncc1Cc1ccccc1 [Compound 50, (S)-3-benzyl-N-(2-(2-cyano-4,4-difluoropyrrolidin-1-yl)-2-oxoethyl)isonicotinamide] |  |  | 1090 ng·h/mL | 79.6% |  |  |  | 
9 | N#C[C@@H]1CC(F)(F)CN1C(=O)CNC(=O)c1c[nH]c(=O)c2ccccc12 [Example 1, (S)—N-(2-(2-cyano-4,4-difluoropyrrolidin-1-yl)-2-oxoethyl)-1-oxo-1,2-dihydroisoquinoline-4-carboxamide] | 1 to 10 µM | 1 to 10 µM | 327 ng·h/mL | 6.3% | < 1000 nM | < 1000 nM |  | 
